The nature of the data set: gradient 5% acetonitrile 3 min, to 50% in 2 min, to 85% in 15 min, held 3 min, 100 µL/min. The settings on record: column: Zorbax Extend-C18 2.1 x 50 mm; eluents: water / acetonitrile, 0.1% formic acid. A digest of the protocol: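 Mixtures of ~100 pure standards were chromatographed on a Zorbax Extend-C18 column (2.1 × 50 mm, 1.8 μm) at 100 μL/min using water and acetonitrile, each with 0.1% formic acid. Detection used a quadrupole time-of-flight mass spectrometer in positive and negative ionization mode, and data collection spanned 3 months. Retention time was obtained from adduct peaks picked computationally and each checked manually.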
As for `O=c1ccc(-c2ccccc2)nn1CCc1nc(-c2cccc(Br)c2)no1`, the RP-LC retention time amounted to 1090 s.

On to `CCC(C)NC(=O)c1cn(-c2ccc(-c3nc(C4CC4)no3)cn2)cn1` (stereo unspecified), for which the RP-LC retention time came out at 883 s.

In the case of `CC1CCN(C(=O)C2=CN(c3ccccc3)c3ccccc3S2(=O)=O)CC1`, the RP-LC retention time is 919 s. The value for `Cc1ccccc1Nc1c(-c2ccc(N(C)C)cc2)nc2ccc(Cl)cn12` was 815 s. The value for `O=C(NC1CCCC1)c1cccnc1N1CCOCC1` was 637 s; that for `CS(=O)(=O)N1CCN(C(=O)c2ccc(-n3cccn3)nn2)CC1` was 601 s; that for `COc1cc(OC)cc(C(=O)N2CCN=C2N2CCC(C)CC2)c1` was 694 s.

`CCc1nc2c(c(=O)n1CC(=O)NCc1cccs1)CN(Cc1ccccc1)CC2` registered an RP-LC retention time of 624 s. The value for `Cc1ccccc1CNS(=O)(=O)c1ccc2c(c1)C(=O)N(C)c1ncccc1O2` was 1010 s; that for `Cn1nc(C(=O)N2CCCCC2)c2c1CCN(C(=O)Nc1ccccc1Br)C2` was 764 s; that for `O=C(CN1C(=O)NC(c2ccccc2Cl)C2=C1COC2=O)Nc1ccc(F)c(Cl)c1` (stereo unspecified) was 837 s. `CCc1cccc(NC(=O)c2csc(-c3cn(C)c4ncccc34)n2)c1` displayed an RP-LC retention time of 1120 s.

Regarding `O=C(NCCC1=CCCCC1)C1CCN(C(=O)c2ncn3c2COC(c2ccc(F)cc2)C3)CC1` (stereo unspecified), the RP-LC retention time was found to be 849 s. On to `COc1ccc(-c2nnc(-c3ccc(C)c(S(=O)(=O)N4CCC(C)CC4)c3)o2)cc1`, for which the RP-LC retention time stood at 1220 s.

For `CCC(=O)NCc1nc2c(n1CC)CN(S(=O)(=O)c1ccccc1F)CC2`, the RP-LC retention time stood at 561 s.

Regarding `Cc1ccc(N2CC(c3noc(C4(c5ccccc5)CC4)n3)CC2=O)cc1` (stereo unspecified), the RP-LC retention time is 989 s. The value for `CN(CC(=O)Nc1ccc(F)cc1)C(=O)C1CCN(c2cnn(C)c(=O)c2)C1` (stereo unspecified) was 634 s; that for `Cc1cccc(NC(=O)C2CCc3nc(N4CCOCC4)ncc3C2)c1C` (stereo unspecified) was 698 s; that for `CN(CCc1noc(COc2ccccc2)n1)C(=O)Nc1ccc(F)c(Cl)c1` was 966 s.

The compound `COC(=O)c1ccc(NC(=O)N2CCC3(CC2)NC(=O)c2ccccc2O3)cc1` returned an RP-LC retention time of 726 s. The value for `CCCn1cc(CCNC(=O)Nc2ccc(C)cc2Cl)c2cccnc21` was 886 s; that for `Cc1cc(-c2nnc(-c3ccc(F)cc3)o2)c(C)n1CC(=O)Nc1cccc(F)c1` was 987 s. The value for `O=C(NCc1ccccc1)c1nc2ccccn2c1-c1ccsc1` was 842 s. The value for `O=C(NC1CCCCCC1)C1CCCN(c2ncnc3c2oc2ccccc23)C1` (stereo unspecified) was 815 s; that for `CCCOc1ccc(CNC(=O)C2CCN(c3cc(Oc4ccccc4)ncn3)CC2)cc1` was 988 s. Regarding `COCCNC(=O)c1cc(C)nc2ccc(Br)cc12`, the RP-LC retention time was determined as 636 s.

`CCOc1ccc(-c2nc(Cn3nnc(C(=O)NCc4ccc(OC)cc4)c3N)c(C)o2)cc1OC` came in with an RP-LC retention time of 922 s.

In turn, `COc1ccc(-c2cn3c(CC(=O)N4CCCc5ccccc54)csc3n2)cc1OC` showed an RP-LC retention time of 775 s. For `CCNS(=O)(=O)c1cccc(-c2nnc(-c3ccc(C)cc3)o2)c1` the value was 922 s. The value for `Cc1cc(-c2csc(S(=O)(=O)NCCCN3CCN(C)CC3)c2)on1` was 580 s; that for `Nc1cc(C2CCN(C(=O)c3ccc(F)c(Cl)c3)CC2)no1` was 712 s; that for `O=C(c1cccs1)N1CCCCC1c1nncn1CC1CC1` (stereo unspecified) was 690 s. The value for `Cc1ccc(C)c(N2CCN(C(=O)c3cn(-c4ccc(NC(=O)C5CC5)cn4)cn3)CC2)c1` was 900 s; that for `O=C(Nc1cccs1)N1CCC(c2ccccc2)C1` (stereo unspecified) was 810 s; that for `Cn1nccc1C(=O)NCc1ccc2c(c1)CCN2C(=O)c1ccccc1` was 759 s.

Compound `COc1cccc(CNc2nccc(-n3nc(C)cc3C)n2)c1` showed an RP-LC retention time of 808 s.

Regarding `O=C(NC1CC1)c1cccnc1N1CCSCC1`, the RP-LC retention time is 623 s.

As to `O=c1cc[nH]c2c(Cl)cccc12`, the RP-LC retention time is 676 s. The value for `CCCN(CCC)S(=O)(=O)c1cccc(-c2cn3ccc(C)cc3n2)c1` was 744 s; that for `CCc1cccc(NS(=O)(=O)c2cc3n(c2)CCN(CC(C)C)C3=O)c1` was 852 s; that for `O=C(CSc1nc(-c2ccccc2)c(NC(=O)c2cccs2)s1)NC1CC1` was 782 s.

`CCC(=O)NCc1nc2c(n1CC)CN(S(=O)(=O)c1ccc(Cl)cc1)CC2` yielded an RP-LC retention time of 538 s. The value for `CC(=O)OCC(=O)NCCCOc1cccc(CN2CCCCC2)c1` was 618 s; that for `CC(=O)Nc1nc(-c2cccnc2)cs1` was 504 s. The value for `CC(C)CCNC(=O)N1CCN(c2cc(-c3ccccc3)ncn2)CC1` was 658 s; that for `Cc1nc(-c2cc(S(=O)(=O)NCCN3CCC(C)CC3)c(C)s2)sc1C` was 718 s. For `O=C(Cc1ccc(Cl)cc1)N1CCN(c2cc(-c3cccnc3)[nH]n2)CC1` the value was 636 s; for `O=C(COc1ccccc1F)N1CC(c2nc3ccccc3[nH]2)C1`, 578 s; for `CCCn1cc(S(=O)(=O)Nc2ccccc2OC)c2cccnc21`, 904 s. In turn, `Cc1noc(C)c1S(=O)(=O)N1CCC[C@H](n2c(=O)n(C)c3cccnc32)C1` registered an RP-LC retention time of 816 s. The value for `O=C(NC1CCN(c2cc(-c3ccccc3)[nH]n2)C1)c1cccc(Cl)c1` (stereo unspecified) was 763 s; that for `CCCN(CCC)C(=O)C1CCCN(c2ncnc3c2nc2n3CCCCC2)C1` (stereo unspecified) was 836 s.

As for `CCS(=O)(=O)N1CCCc2cc(C(=O)NC3CCCCC3)ccc21`, the RP-LC retention time came to 656 s. For `O=c1ccc(-c2cccs2)nn1CCNS(=O)(=O)c1ccccc1C(F)(F)F` the value was 779 s.

`Cc1ccc(-c2noc(C3CCCN3C(=O)CNC(=O)C(c3ccccc3)c3ccccc3)n2)cc1` (stereo unspecified) returned an RP-LC retention time of 1100 s.

Take `Cc1ccc(C)c(N2CCN(C(=O)c3cn4cc(C)ccc4n3)CC2)c1`: the RP-LC retention time came out at 797 s. `Cc1oc(-c2[nH]ncc2C(=O)N2CCCC2)cc1S(=O)(=O)NCCCc1ccccc1` showed an RP-LC retention time of 799 s. `CC(C)n1cnc2cc(CNC(=O)c3c(F)cccc3Cl)ccc21` yielded an RP-LC retention time of 617 s. For `CCOC(=O)c1cccc(N2C=C(C#N)S(=O)(=O)c3c(F)cccc32)c1` the value was 907 s; for `O=C(O)c1cc2cc(Cc3cccnc3)ccc2o1`, 592 s. The value for `Cc1nc(C(=O)Nc2ccc(N3CCOCC3)cc2)c(C)n1C1CCN(C)CC1` was 555 s.
